Legend:
Experiment in all cases: GsX GloSensor assay with Gsα/q11
Assay type in all cases: cell-based, Branchiostoma lanceolatum
Conditions in all cases: 16.7 μM AA92593, COS-1 cells
[1] = system: lanceolatum melanopsin A269^6.52S mutant
Text: (§1) We assessed the effect of the antagonist on the mutants using the GsX GloSensor assay with Gsα/q11. […] Furthermore, the double substitution F189^ECL2W/I207^5.42F further increased the susceptibility of the lanceolatum melanopsin to the antagonist by ∼88% (Fig. 7, G, H, and I). The AA92593-induced inhibition of the double mutant F189^ECL2W/I207^5.42F was as efficient as that of human melanopsin (Fig. 7I). […] Taken together, the introduction of Trp-189^ECL2 and Phe-207^5.42 rendered lanceolatum melanopsin highly sensitive to the antagonist (Fig. 7, G, H, and I).
(§2) For GloSensor assay, opsins, GloSensor assay sensor (coded by pGlo-22F), and NanoBiT-tagged G proteins were transiently expressed in COS-1 cells (kindly provided from Dr David Farrens, Oregon Health and Science University) using PEI as described previously ([24], [52]). For the GsX GloSensor assay ([12], [13]), each well of a 96-well assay plate (Corning) was transfected with 50 ng opsin plasmid, 16.7 ng G protein plasmid, 50 ng pGlo-22F plasmid (Promega), and 500 ng PEI in 25 μl Opti-mem and 75 μl Dulbecco's modified Eagle's medium (D-MEM). For NanoBiT G protein dissociation assay, each well of a 96-well assay plate was transfected with 50 ng opsin plasmid, 5 ng Lg-BiT inserted Gqα (Gqα-LgBiT) plasmid, 25 ng Gβ1 plasmid, 25 ng Sm-BiT fused Gγ2 plasmid, 5 ng RIC8A plasmid, and 500 ng PEI in 25 μl Opti-mem and 75 μl D-MEM. For GFP-fluorescence microscopy, a 35-mm cell culture dish (IWAKI) was transfected with 2 μg melanopsin-GFP plasmid and 8 μg PEI in 400 μl Opti-mem and 1.2 ml D-MEM. […]
(§3) The transfected COS-1 cells were incubated at 37 °C, 5% CO2 for 2 days, and the medium was aspirated and exchanged with 50 μl of HBSS (145 mM NaCl, 10 mM D-glucose, 5 mM KCl, 1 mM MgCl2, 1.7 mM CaCl2, 1.5 mM NaHCO3, 10 mM Hepes, pH 7.4), containing 33.3, 20, 10, 2, 0.2, 0.02, 0.002, or 0 μM AA92593, 0.5% dimetyl sulfoxide (DMSO), and 4% (vol/vol) GloSensor cAMP reagent stock solution. […] Then, the cells were incubated at room temperature for 1 h, and luminescence changes were monitored. After incubation of the cells with AA92593, luminescence measurement was interrupted, the plate was ejected, and the cells were added with 50 μl of HBSS containing 0.2 μM 9-cis-retinal. […] Luminescence was measured using GM-2000 or GM-3510 microplate reader (Promega). Luminescence level of each well was measured every 30 s with integration time of 0.6 to 0.9 s. To illuminate opsins, luminescence measurement was interrupted, the plate was ejected, and the plate was illuminated by white light with CN-160 LED video light (light intensity, ∼9 mW/cm^2) (NEEWER). […] After illumination, luminescence measurement was resumed. The measured luminescence levels were normalized to the level at the starting point (time = 0 min). […]

[2] = system: lanceolatum melanopsin I207^5.42L mutant
Text: as §1, §2, §3

[3] = system: lanceolatum melanopsin F189^ECL2W mutant
Text: as §1, §2, §3

[4] = system: lanceolatum melanopsin I207^5.42F mutant
Text: as §1, §2, §3

Structure (SMILES): COc1ccc(S(=O)(=O)N2CCCCC2)cc1C [AA92593]
- change in sensitivity to AA92593 vs WT [1]: little changes
- change in sensitivity to AA92593 vs WT [2]: little changes
- increase in sensitivity to AA92593 vs WT [3]: ~21%
- increase in sensitivity to AA92593 vs WT [4]: ~42%

From publication PMC12051620, “Molecular basis underlying the specificity of an antagonist AA92593 for mammalian melanopsins” (The Journal of Biological Chemistry, 2025)
